Measurements: patent publication US20020028836A1, “Potassium channel openers” (priority 2000, published 2002)

Assays:
[1] = tested on: primary cultured guinea-pig urinary bladder (GPB) cells; test: Membrane hyperpolarization (MHP) assay, DiBAC(4)3 / FLIPR; assay type: cell-based; details: Cavia porcellus; for EC50: concentration that elicits 50% of the maximal response for the test sample; for Emax: maximal steady-state hyperpolarization, normalized to response with 10 μM P1075 (100%)
Procedure, shortened: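 Primary smooth-muscle cells from male guinea-pig bladder, grown to confluence, loaded 30 min at 37° C with 5 μM DiBAC(4)3 in HEPES buffer pH 7.4. Fluorescence drop on FLIPR followed 25 min after compound; steady-state hyperpolarization normalized to 10 μM P1075 (100%), EC50 from four-parameter fit of five concentrations.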

SMILES | EC50 [1] | melting point | Emax [1]
Cc1ccc(C(=O)NC(NC(=S)Nc2cccc(C(F)(F)F)c2F)C(F)(F)F)cc1 (stereo not drawn) [Example 5, 4-methyl-N-[2,2,2-trifluoro-1-({[2-fluoro-3-(trifluoromethyl)anilino]carbothioyl}amino)ethyl]benzamide] | 1080 nM | 179 to 181 °C | 106%
Cc1ccc(C(=O)NC(NC(=S)Nc2cccc(C)c2)C(F)(F)F)cc1 (stereo not drawn) [Example 16, 4-methyl-N-{2,2,2-trifluoro-1-[(3-toluidinocarbothioyl)amino]ethyl}benzamide] | 370 nM | 197 to 198 °C | 65%
Cc1ccc(C(=O)NC(Cc2ccccc2)NC(=S)Nc2cccc([N+](=O)[O-])c2)cc1 (stereo not drawn) [Example 30, 4-methyl-N-(1-{[(3-nitroanilino)carbothioyl]amino}-2-phenylethyl)benzamide] | 3200 nM | 170 to 171 °C | 22%
Cc1ccc(C(=O)NC(NC(=O)Nc2ccccc2)C(Cl)(Cl)Cl)cc1 (stereo not drawn) [Example 42, N-{1-[(anilinocarbonyl)amino]-2,2,2-trichloroethyl}-4-methylbenzamide] | 2140 nM | 230 to 233 °C | 66%
COc1ccccc1NC(=S)NC(NC(=O)c1ccc(C)cc1)C(F)(F)F (stereo not drawn) [Example 8, 4-methyl-N-(2,2,2-trifluoro-1-{[(2-methoxyanilino)carbothioyl]amino}ethyl)benzamide] | ≥ 10000 nM | 212 to 214 °C | 10%
CC(C)(C)CC(NC(=O)c1ccc(Cl)cc1)NC(=NC#N)Nc1cccnc1 (stereo not drawn) [Example 62, 4-chloro-N-(1-{[(cyanoimino)(3-pyridinylamino)methyl]amino}-3,3-dimethylbutyl)benzamide] | 330 nM | 181 to 183 °C | 81%
Cc1ccccc1C(=O)NC(NC(=S)Nc1cccnc1)C(C)(C)C (stereo not drawn) [Example 26, N-(2,2-dimethyl-1-{[(3-pyridinylamino)carbothioyl]amino}propyl)-2-methylbenzamide] | 990 nM | 186 to 187 °C | 80%
CCC(CC)C(NC(=O)c1ccc(Cl)cc1)NC(=C[N+](=O)[O-])Nc1cccnc1 (stereo not drawn) [Example 68, 4-chloro-N-(2-ethyl-1-{[2-nitro-1-(3-pyridinylamino)ethenyl]amino}butyl)benzamide] | 430 nM | 192 to 193 °C | 99%
Cc1ccc(C(=O)NC(NC(=S)Nc2cccnc2)C(C)C)cc1 (stereo not drawn) [Example 35, 4-methyl-N-(2-methyl-1-{[(3-pyridinylamino)carbothioyl]amino}propyl)benzamide] | 13100 nM | 184 to 186 °C | 40%
Cc1ccc(C(=O)NC(CF)NC(=S)Nc2cccc([N+](=O)[O-])c2)cc1 (stereo not drawn) [Example 32, N-(2-fluoro-1-{[(3-nitroanilino)carbothioyl]amino}ethyl)-4-methylbenzamide] | 1000 nM | 148 to 155 °C | 15%
N#CN=C(Nc1cccnc1)NC(NC(=O)c1ccc(Cl)cc1)C(F)(F)F (stereo not drawn) [Example 64, 4-chloro-N-(1-{[(cyanoimino)(3-pyridinylamino)methyl]amino}-2,2,2-trifluoroethyl)benzamide] | 400 nM | 136 to 138 °C | 89%
Cc1ccc(C(=O)NC(NC(=NC#N)Nc2cncnc2)C(Cl)(Cl)Cl)cc1 (stereo not drawn) [Example 48, 4-methyl-N-(2,2,2-trichloro-1-{[(cyanoimino)(5-pyrimidinylamino)methyl]amino}ethyl)benzamide] | 200 nM | 186 to 188 °C | 96%
O=C(NC(NC(=S)Nc1cccnc1)C(F)(F)F)c1ccc(Cl)cc1 (stereo not drawn) [Example 19, 4-chloro-N-(2,2,2-trifluoro-1-{[(3-pyridinylamino)carbothioyl]amino}ethyl)benzamide] | 60 nM | 147 to 149 °C | 117%
CC(C)C(NC(=O)c1ccc(Cl)cc1)NC(=NC#N)Nc1cccnc1 (stereo not drawn) [Example 63, 4-chloro-N-(1-{[(cyanoimino)(3-pyridinylamino)methyl]amino}-2-methylpropyl)benzamide] | 4400 nM | 182 to 184 °C | 73%
COc1cccc(NC(=S)NC(NC(=O)c2ccc(C)cc2)C(F)(F)F)c1 (stereo not drawn) [Example 12, 4-methyl-N-(2,2,2-trifluoro-1-{[(3-methoxyanilino)carbothioyl]amino}ethyl)benzamide] | ≥ 10000 nM | 206 to 208 °C | 4%

Second part, led by results:

EC50 [1] | melting point | SMILES | Emax [1]
320 nM | 167 to 170 °C | CC(C)(C)C(NC(=O)c1ccc(Cl)cc1)NC(=NC#N)Nc1cccc(F)c1 (stereo not drawn) [Example 70, 4-chloro-N-(1-{[(cyanoimino)(3-fluoroanilino)methyl]amino}-2,2-dimethylpropyl)benzamide] | 74%
840 nM | 202 to 203 °C | N#CN=C(Nc1cccnc1)NC(CC12CC3CC(CC(C3)C1)C2)NC(=O)c1ccc(Cl)cc1 (stereo not drawn) [Example 95, N-(2-(1-adamantyl)-1-{[(cyanoimino)(3-pyridinylamino)methyl]amino}ethyl)-4-chlorobenzamide] | 97%
6100 nM | 194 to 195 °C | CCC1(C(NC(=O)c2ccc(Cl)cc2)NC(=NC#N)Nc2cccnc2)COCOC1 (stereo not drawn) [Example 101, 4-chloro-N-[{[(cyanoimino)(3-pyridinylamino)methyl]amino}(5-ethyl-1,3-dioxan-5-yl)methyl]benzamide] | 59%
1200 nM | 200 to 203 °C | C=CCC(C)(C)C(NC(=O)c1ccc(Cl)cc1)NC(=N[N+](=O)[O-])Nc1cccnc1 (stereo not drawn) [Example 127, 4-chloro-N-(1-{[(nitroimino)(3-pyridinylamino)methyl]amino}-2,2-dimethyl-4-pentenyl)benzamide] | 65%
53 nM | 180 to 181 °C | CC(C)(C)C(NC(=O)c1ccc(Br)cc1)NC(=NC#N)Nc1cccnc1 (stereo not drawn) [Example 105, 4-bromo-N-(1-{[(cyanoimino)(3-pyridinylamino)methyl]amino}-2,2-dimethylpropyl)benzamide] | 106%
180 nM | 209 to 210 °C | N#CN=C(Nc1cccnc1)NC(NC(=O)c1ccc(Cl)cc1)C12CC3CC(CC(C3)C1)C2 (stereo not drawn) [Example 100, N-(1-adamantyl{[(cyanoimino)(3-pyridinylamino)methyl]amino}methyl)-4-chlorobenzamide] | 87%
470 nM | 205 to 207 °C | CC(C)(Cc1ccccc1)C(NC(=O)c1ccc(Cl)cc1)NC(=N[N+](=O)[O-])Nc1cccnc1 (stereo not drawn) [Example 128, 4-chloro-N-(1-{[(nitroimino)(3-pyridinylamino)methyl]amino}-2,2-dimethyl-3-phenylpropyl)benzamide] | 116%
2000 nM | 175 to 180 °C | C=CCOCC(CC)(COCC=C)C(NC(=O)c1ccc(Cl)cc1)NC(=N[N+](=O)[O-])Nc1cccnc1 (stereo not drawn) [Example 131, N-(2,2-bis[(allyloxy)methyl]-1-{[(nitroimino)(3-pyridinylamino)methyl]amino}butyl)-4-chlorobenzamide] | 53%
